The text below walks through data of the supplement of paper PMC10307832.

What all share (assay): relative viability (nuclei count vs DMSO), 5 days (fraction); higher = more cells survive
Compound in assay [1]: C1=CC2=NC=CN=C2C=C1/C=C/3\C(=O)NC(=O)S3
In short, it runs like this:
(§1)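 On vehicle-anchored 1536-well plates, lung cancer cell lines held overnight at 37 °C were pinned with five library-drug doses (not always all listed) spaced by √10. With no medium change over 5 days, they were then fixed, permeabilised and Hoechst-stained in one step and imaged at 4×. MetaXpress counted nuclei, and viability is the median across plates of treated-well over vehicle-well nuclei. Acceptance needed control CV below 25% and at least one doubling.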

Compound in another assay: CCN1CCN(c2ccc(Nc3cc(N(C)C(=O)Nc4c(Cl)c(OC)cc(OC)c4Cl)ncn3)cc2)CC1 [BGJ398]
In short, it runs like this:
as §1

Compound in the assay “BGJ398 + Navitoclax”: CCN1CCN(c2ccc(Nc3cc(N(C)C(=O)Nc4c(Cl)c(OC)cc(OC)c4Cl)ncn3)cc2)CC1 [BGJ398] + CC1(C)CCC(c2ccc(Cl)cc2)=C(CN2CCN(c3ccc(C(=O)NS(=O)(=O)c4ccc(N[C@H](CCN5CCOCC5)CSc5ccccc5)c(S(=O)(=O)C(F)(F)F)c4)cc3)CC2)C1 [Navitoclax] (partner 0.5 µM)
In short, it runs like this:
(§2)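 Cells from lung cancer lines were seeded into 1536-well plates and, one day later, dosed by pin tool. Treatments were either a single drug or a fixed dose of an anchor drug with five library-drug doses (not always all listed) in √10 steps. After 5 days, nuclei were stained in a one-step fixation (final 0.05% Triton X-100, 1% formaldehyde, 1 ug/ml Hoechst) and counted on 4× images, and relative viability is the treated-to-vehicle nuclei ratio, as the median of duplicate plates.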

Compound in assay [2]: C1=CC2=NC=CN=C2C=C1/C=C/3\C(=O)NC(=O)S3 + CC(=O)Nc1cccc(-n2c(=O)n(C3CC3)c(=O)c3c(Nc4ccc(I)cc4F)n(C)c(=O)c(C)c32)c1 [Trametinib] (partner 0.02 µM)
In short, it runs like this:
as §2

Regarding NCI-H322M, the relative viability in assay [1] (0.02 µM) amounted to 0.935; in assay [1] (0.06325 µM) it was 0.969; in assay [1] (0.2 µM), 0.995; in assay [1] (0.6325 µM), 0.916; in assay [1] (2 µM), 0.739; with BGJ398 (0.01 µM), 1.07. The relative viability in the assay with BGJ398 (0.03162 µM) amounted to 0.754; with BGJ398 (0.1 µM) it was 0.948; in the assay with BGJ398 (0.3162 µM) it was 0.815; with BGJ398 (1 µM), 1.02; in the assay with BGJ398 + Navitoclax (first compound 0.01 µM) it was 1.23; with BGJ398 + Navitoclax (first compound 0.03162 µM) it was 1.26. In addition, the relative viability in the assay with BGJ398 + Navitoclax (first compound 0.1 µM) is 1.05; with BGJ398 + Navitoclax (first compound 0.3162 µM) it was 1.2; in the assay with BGJ398 + Navitoclax (first compound 1 µM), 1.31; in assay [2] (first compound 0.02 µM), 0.535; in assay [2] (first compound 0.06325 µM) it was 0.507; in assay [2] (first compound 0.2 µM), 0.469. For the same cell line, the relative viability in assay [2] (first compound 0.6325 µM) came out at 0.503; in assay [2] (first compound 2 µM), 0.383.

Take NCI-H2170: the relative viability in assay [1] (0.02 µM) was 0.909; in assay [1] (0.06325 µM), 1; in assay [1] (0.2 µM), 1.01; in assay [1] (0.6325 µM), 0.938; in assay [1] (2 µM) it was 0.998; with BGJ398 (0.01 µM), 0.988. The relative viability with BGJ398 (0.03162 µM) is 1.06; with BGJ398 (0.1 µM) it was 1.1; with BGJ398 (0.3162 µM), 1.03; in the assay with BGJ398 (1 µM), 1.07; with BGJ398 + Navitoclax (first compound 0.01 µM), 0.505; with BGJ398 + Navitoclax (first compound 0.03162 µM) it was 0.572. Moreover, the relative viability with BGJ398 + Navitoclax (first compound 0.1 µM) is 0.586; with BGJ398 + Navitoclax (first compound 0.3162 µM), 0.671; with BGJ398 + Navitoclax (first compound 1 µM) it was 0.765; in assay [2] (first compound 0.02 µM), 0.866; in assay [2] (first compound 0.06325 µM) it was 1.01; in assay [2] (first compound 0.2 µM) it was 1.03. The relative viability in assay [2] (first compound 0.6325 µM) worked out at 0.868; in assay [2] (first compound 2 µM), 0.986.

In the case of NCI-H1395, the relative viability in assay [1] (0.02 µM) is 1.05; in assay [1] (0.06325 µM), 0.985; in assay [1] (0.2 µM) it was 1.06; in assay [1] (0.6325 µM), 0.884; in assay [1] (2 µM), 0.899; with BGJ398 (0.01 µM) it was 0.853. The relative viability in the assay with BGJ398 (0.03162 µM) is 0.946; in the assay with BGJ398 (0.1 µM), 0.847; with BGJ398 (0.3162 µM) it was 0.589; with BGJ398 (1 µM), 0.483; in the assay with BGJ398 + Navitoclax (first compound 0.01 µM), 1.08; with BGJ398 + Navitoclax (first compound 0.03162 µM), 1.36. Besides, the relative viability in the assay with BGJ398 + Navitoclax (first compound 0.1 µM) was 1.13; with BGJ398 + Navitoclax (first compound 0.3162 µM) it was 0.996; with BGJ398 + Navitoclax (first compound 1 µM), 0.848; in assay [2] (first compound 0.02 µM) it was 1.01; in assay [2] (first compound 0.06325 µM), 0.974; in assay [2] (first compound 0.2 µM) it was 1.06. Also, the relative viability was 0.978 in assay [2] (first compound 0.6325 µM) and 1.02 in assay [2] (first compound 2 µM).

Consider NCI-H838, for which the relative viability turned out to be 0.96 in assay [1] (0.02 µM); 0.957 in assay [1] (0.06325 µM); 1.02 in assay [1] (0.2 µM); 0.821 in assay [1] (0.6325 µM); 0.776 in assay [1] (2 µM); 0.845 with BGJ398 (0.01 µM). For the same cell line, the relative viability with BGJ398 (0.03162 µM) was determined as 0.938; with BGJ398 (0.1 µM), 0.984; in the assay with BGJ398 (0.3162 µM) it was 0.8; in the assay with BGJ398 (1 µM) it was 0.742; in the assay with BGJ398 + Navitoclax (first compound 0.01 µM), 1.08; in the assay with BGJ398 + Navitoclax (first compound 0.03162 µM), 1.11. In addition, the relative viability in the assay with BGJ398 + Navitoclax (first compound 0.1 µM) is 1.03; with BGJ398 + Navitoclax (first compound 0.3162 µM), 0.907; with BGJ398 + Navitoclax (first compound 1 µM), 0.917; in assay [2] (first compound 0.02 µM), 0.537; in assay [2] (first compound 0.06325 µM), 0.47; in assay [2] (first compound 0.2 µM) it was 0.555. The values for the relative viability in assay [2] (first compound 0.6325 µM) and in assay [2] (first compound 2 µM) were 0.454 and 0.366, respectively.

On to CAL-12T, for which the relative viability is 0.962 in assay [1] (0.02 µM); 0.953 in assay [1] (0.06325 µM); 1.08 in assay [1] (0.2 µM); 0.971 in assay [1] (0.6325 µM); 0.951 in assay [1] (2 µM); 0.947 with BGJ398 (0.01 µM). In addition, the relative viability with BGJ398 (0.03162 µM) stood at 1.02; with BGJ398 (0.1 µM), 0.935; with BGJ398 (0.3162 µM), 0.929; with BGJ398 (1 µM), 0.942; in the assay with BGJ398 + Navitoclax (first compound 0.01 µM), 1.12; with BGJ398 + Navitoclax (first compound 0.03162 µM) it was 1.38. Also, the relative viability in the assay with BGJ398 + Navitoclax (first compound 0.1 µM) is 1.37; with BGJ398 + Navitoclax (first compound 0.3162 µM) it was 1.08; with BGJ398 + Navitoclax (first compound 1 µM) it was 1.13; in assay [2] (first compound 0.02 µM), 0.398; in assay [2] (first compound 0.06325 µM) it was 0.301; in assay [2] (first compound 0.2 µM) it was 0.426. Besides, the figures for the relative viability in assay [2] (first compound 0.6325 µM) and in assay [2] (first compound 2 µM) were 0.309 and 0.271, respectively.
